Laboratory results: ChEMBL document CHEMBL1132393, “Structure-activity relationships of a novel class of Src SH2 inhibitors” (Bioorg Med Chem Lett, 1999)

Target: Proto-oncogene tyrosine-protein kinase Src (Homo sapiens, UniProt P12931)
Assay: Binding affinity against Src-homology 2 (SRC SH2).

Proto-oncogene tyrosine-protein kinase Src, sequence (P12931 2-536 limits assumed): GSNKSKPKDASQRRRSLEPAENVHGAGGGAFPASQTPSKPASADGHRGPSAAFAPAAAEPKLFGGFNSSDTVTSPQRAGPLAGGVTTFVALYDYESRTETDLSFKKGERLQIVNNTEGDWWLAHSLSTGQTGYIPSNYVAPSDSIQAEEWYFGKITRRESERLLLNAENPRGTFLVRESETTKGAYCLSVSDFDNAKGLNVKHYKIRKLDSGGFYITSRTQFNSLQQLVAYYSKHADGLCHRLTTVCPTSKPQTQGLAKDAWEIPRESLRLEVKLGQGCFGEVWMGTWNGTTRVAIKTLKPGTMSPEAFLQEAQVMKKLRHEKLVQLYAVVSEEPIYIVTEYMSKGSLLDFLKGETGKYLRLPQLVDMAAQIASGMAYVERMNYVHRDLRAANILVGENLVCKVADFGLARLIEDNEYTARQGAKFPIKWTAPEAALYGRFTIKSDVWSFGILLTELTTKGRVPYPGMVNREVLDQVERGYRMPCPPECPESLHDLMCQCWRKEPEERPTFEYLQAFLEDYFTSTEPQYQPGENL

Row | Compound | IC50 [µM]
1 | CC[C@H](NC(=O)[C@H](Cc1ccc(OP(=O)(O)O)cc1)NC(C)=O)c1nc(CCC(C)C)no1 | 111
2 | CCCCCCCc1noc([C@H](Cc2c[nH]c3ccccc23)NC(=O)[C@H](Cc2ccc(OP(=O)(O)O)cc2)NC(C)=O)n1 | 35
3 | CC(=O)N[C@@H](Cc1ccc(OP(=O)(O)O)cc1)C(=O)N[C@@H](CCC(=O)O)c1nc(Cc2ccccc2)no1 | 92
4 | CCCCCCc1cnc([C@H](CC)NC(=O)[C@H](Cc2ccc(OP(=O)(O)O)cc2)NC(C)=O)s1 | 12
5 | CCCCCc1noc([C@H](CC)NC(=O)[C@H](Cc2ccc(OP(=O)(O)O)cc2)NC(C)=O)n1 | 65
6 | CC(=O)N[C@@H](Cc1ccc(OP(=O)(O)O)cc1)C(=O)N[C@@H](CCC(=O)O)c1nc(CC2CCCCC2)cs1 | 26
7 | CCCCCCc1noc([C@H](CCC(=O)O)NC(=O)[C@H](Cc2ccc(OP(=O)(O)O)cc2)NC(C)=O)n1 | 8
8 | CC(=O)N[C@@H](Cc1ccc(OP(=O)(O)O)cc1)C(=O)N[C@@H](CCC(N)=O)c1nc(CCC(C)C)no1 | 320
9 | CCCCCCc1noc([C@H](CC)NC(=O)[C@H](Cc2ccc(OP(=O)(O)O)cc2)NC(C)=O)n1 | 25
10 | CC(=O)N[C@@H](Cc1ccc(OP(=O)(O)O)cc1)C(=O)N[C@@H](Cc1c[nH]c2ccccc12)c1nc(Cc2cccc3ccccc23)no1 | 279
11 | CCCCCCc1cnc([C@H](Cc2c[nH]c3ccccc23)NC(=O)[C@H](Cc2ccc(OP(=O)(O)O)cc2)NC(C)=O)s1 | 14
12 | CCCCCc1noc([C@H](CCC(=O)O)NC(=O)[C@H](Cc2ccc(OP(=O)(O)O)cc2)NC(C)=O)n1 | 21
13 | CC(=O)N[C@@H](Cc1ccc(OP(=O)(O)O)cc1)C(=O)N[C@@H](CCC(=O)O)c1nc(CC2CCCCC2)no1 | 29
14 | CCCCCCCc1noc([C@H](CCC(=O)O)NC(=O)[C@H](Cc2ccc(OP(=O)(O)O)cc2)NC(C)=O)n1 | 7
15 | CC(=O)N[C@@H](Cc1ccc(OP(=O)(O)O)cc1)C(=O)N[C@@H](CCC(=O)O)c1nc(CCC(C)C)cs1 | 76
16 | CC(=O)N[C@@H](Cc1ccc(OP(=O)(O)O)cc1)C(=O)N[C@@H](CCC(N)=O)c1nc(CC2CCCCC2)no1 | 278

Row | Compound | IC50 [µM]
17 | CCCCCc1noc([C@H](Cc2c[nH]c3ccccc23)NC(=O)[C@H](Cc2ccc(OP(=O)(O)O)cc2)NC(C)=O)n1 | 36
18 | CC(=O)N[C@@H](Cc1ccc(OP(=O)(O)O)cc1)C(=O)N[C@@H](Cc1c[nH]c2ccccc12)c1nc(CCCC(C)C)no1 | 89
19 | CC(=O)N[C@@H](Cc1ccc(OP(=O)(O)O)cc1)C(=O)N[C@@H](Cc1c[nH]c2ccccc12)c1nc(Cc2ccccc2)no1 | 25
20 | CCCCCCc1noc([C@H](Cc2c[nH]c3ccccc23)NC(=O)[C@H](Cc2ccc(OP(=O)(O)O)cc2)NC(C)=O)n1 | 16
21 | CCCCCCCc1noc([C@H](CC)NC(=O)[C@H](Cc2ccc(OP(=O)(O)O)cc2)NC(C)=O)n1 | 22
22 | CCCCc1noc([C@H](CCC(N)=O)NC(=O)[C@H](Cc2ccc(OP(=O)(O)O)cc2)NC(C)=O)n1 | 384
23 | CC(=O)N[C@@H](Cc1ccc(OP(=O)(O)O)cc1)C(=O)N[C@@H](Cc1c[nH]c2ccccc12)c1nc(CC2CCCCC2)no1 | 62
24 | CC(=O)N[C@@H](Cc1ccc(OP(=O)(O)O)cc1)C(=O)NCc1nc(CC2CCCCC2)no1 | 896
25 | CC(=O)N[C@@H](Cc1ccc(OP(=O)(O)O)cc1)C(=O)NCc1nc(CC2CCCCC2)cs1 | 483
26 | CC(=O)N[C@@H](Cc1ccc(OP(=O)(O)O)cc1)C(=O)N[C@@H](Cc1c[nH]c2ccccc12)c1nc(CCC(C)C)no1 | 33
27 | CC(=O)N[C@@H](Cc1ccc(OP(=O)(O)O)cc1)C(=O)N[C@@H](CCC(=O)O)c1ncc(CC2CCCCC2)s1 | 16
28 | CCCCCCc1noc([C@H](CCC(N)=O)NC(=O)[C@H](Cc2ccc(OP(=O)(O)O)cc2)NC(C)=O)n1 | 24
29 | CC(=O)N[C@@H](Cc1ccc(OP(=O)(O)O)cc1)C(=O)N[C@@H](CCC(=O)O)c1nc(CCC(C)C)no1 | 61
30 | CC(=O)N[C@@H](Cc1ccc(OP(=O)(O)O)cc1)C(=O)N[C@@H](CCC(=O)O)c1nc(CC(C)C)no1 | 166
31 | CC(=O)N[C@@H](Cc1ccc(OP(=O)(O)O)cc1)C(=O)N[C@@H](CCC(=O)O)c1nc(CC(C)C)cs1 | 218
